Read-outs that look alike come from different tables or passages of the source.
Experiments:
[1] = test system: test plant species; test: Post-emergent herbicidal activity test (greenhouse, foliar spray, visual growth reduction); type: in vivo; settings: post-emergence, 336 h, 140 g ai/ha
Outline: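 Seedlings were raised 7-21 d in a greenhouse under a 15 h photoperiod until the first or second true leaf. Each compound, dissolved in acetone:DMSO 97:3 and diluted into a surfactant-containing spray mixture, was then applied at 187 L/ha. Plants were subirrigated, and growth reduction was scored visually at 14 d.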

[2] = ALOMY: blackgrass (Alopecurus myosuroides), 14 days after application, read-out: Visual Growth Reduction (%) 14 Days After Application, ALOMY
[3] = AMARE: redroot pigweed (Amaranthus retroflexus), 14 days after application, read-out: Visual Growth Reduction (%) 14 Days After Application, AMARE
[4] = AVEFA: wild oat (Avena fatua), 14 days after application, read-out: Visual Growth Reduction (%) 14 Days After Application, AVEFA
[5] = CHEAL: lambsquarters (Chenopodium album), 14 days after application, read-out: Visual Growth Reduction (%) 14 Days After Application, CHEAL
[6] = CIRAR: canada thistle (Cirsium arvense), 14 days after application, read-out: Visual Growth Reduction (%) 14 Days After Application, CIRAR
[7] = CYPES: yellow nutsedge (Cyperus esculentus), 14 days after application, read-out: Visual Growth Reduction (%) 14 Days After Application, CYPES
[8] = DIGSA: crabgrass (Digitaria sanguinalis), 14 days after application, read-out: Visual Growth Reduction (%) 14 Days After Application, DIGSA
[9] = ECHCG: barnyardgrass (Echinochloa crus-galli), 14 days after application, read-out: Visual Growth Reduction (%) 14 Days After Application, ECHCG
[10] = IPOHE: ivy-leaf morning glory (Ipomoea hederacea), 14 days after application, read-out: Visual Growth Reduction (%) 14 Days After Application, IPOHE
[11] = KCHSC: kochia (Bassia scoparia), 14 days after application, read-out: Visual Growth Reduction (%) 14 Days After Application, KCHSC
[12] = ORYSA: rice (Oryza sativa), 14 days after application, read-out: Visual Growth Reduction (%) 14 Days After Application, ORYSA
[13] = SETFA: giant foxtail (Setaria faberi), 14 days after application, read-out: Visual Growth Reduction (%) 14 Days After Application, SETFA
[14] = SORVU: grain sorghum (Sorghum vulgare), 14 days after application, read-out: Visual Growth Reduction (%) 14 Days After Application, SORVU
[15] = STEME: common chickweed (Stellaria media), 14 days after application, read-out: Visual Growth Reduction (%) 14 Days After Application, STEME
[16] = TRZAS: wheat, spring (Triticum aestivum), 14 days after application, read-out: Visual Growth Reduction (%) 14 Days After Application, TRZAS
[17] = blackgrass (Alopecurus myosuroides), 14 Days After Application, read-out: Visual Growth Reduction (%) ALOMY
[18] = canada thistle (Cirsium arvense), 14 Days After Application, read-out: Visual Growth Reduction (%) CIRAR
[19] = crabgrass (Digitaria sanguinalis), 14 Days After Application, read-out: Visual Growth Reduction (%) DIGSA
[20] = lambsquarters (Chenopodium album), 14 Days After Application, read-out: Visual Growth Reduction (%) CHEAL
[21] = redroot pigweed (Amaranthus retroflexus), 14 Days After Application, read-out: Visual Growth Reduction (%) AMARE
[22] = wild oat (Avena fatua), 14 Days After Application, read-out: Visual Growth Reduction (%) AVEFA
[23] = yellow nutsedge (Cyperus esculentus), 14 Days After Application, read-out: Visual Growth Reduction (%) CYPES

Row | Compound | melting point [°C] | pest or weed control at 140 g/ha [1, 2] [%] | pest or weed control at 140 g/ha [1, 3] [%] | pest or weed control at 140 g/ha [1, 4] [%] | pest or weed control at 140 g/ha [1, 5] [%] | pest or weed control at 140 g/ha [1, 6] [%] | pest or weed control at 140 g/ha [1, 7] [%] | pest or weed control at 140 g/ha [1, 8] [%] | pest or weed control at 140 g/ha [1, 9] [%] | pest or weed control at 140 g/ha [1, 10] [%] | pest or weed control at 140 g/ha [1, 11] [%] | pest or weed control at 140 g/ha [1, 12] [%] | pest or weed control at 140 g/ha [1, 13] [%] | pest or weed control at 140 g/ha [1, 14] [%] | pest or weed control at 140 g/ha [1, 15] [%] | pest or weed control at 140 g/ha [1, 16] [%] | also measured
1 | COC(=O)c1nc(-c2ccc(C(F)(F)F)cc2Cl)c(F)c(OC)c1Cl [F42, methyl 3-chloro-6-(2-chloro-4-(trifluoromethyl)phenyl)-5-fluoro-4-methoxypicolinate] | 65 to 67 | 0 to 29 | 30 to 44 | 0 to 29 | 85 to 94 | 60 to 74 | 0 to 29 | 0 to 29 | 0 to 29 | 85 to 94 | 45 to 59 | 0 to 29 | 0 to 29 | 75 to 84 | 0 to 29 | 0 to 29 | 
2 | COC(=O)c1nc(-c2ccc(C(F)(F)F)nc2F)c(F)cc1Cl [F354, methyl 5-chloro-2′,3-difluoro-6′-(trifluoromethyl)-[2,3′-bipyridine]-6-carboxylate] | 84 to 86 |  |  |  |  |  |  |  | 75 to 84 | 95 to 100 | 60 to 74 | 0 to 29 | 75 to 84 | 85 to 94 | 0 to 29 | 60 to 74 | pest or weed control at 140 g/ha [1, 17]: 0 to 29%; pest or weed control at 140 g/ha [1, 18]: 75 to 84%; pest or weed control at 140 g/ha [1, 19]: 85 to 94%; pest or weed control at 140 g/ha [1, 20]: 75 to 84%; pest or weed control at 140 g/ha [1, 21]: 60 to 74%; pest or weed control at 140 g/ha [1, 22]: 30 to 44%; pest or weed control at 140 g/ha [1, 23]: 0 to 29%
3 | COC(=O)c1nc(-c2ccc(S(C)(=O)=O)cc2F)c(F)cc1Cl [F379, Methyl 3-chloro-5-fluoro-6-(2-fluoro-4-(methylsulfonyl)phenyl)picolinate] | 179 to 181 |  |  |  |  |  |  |  | 75 to 84 | 95 to 100 | 85 to 94 | 0 to 29 | 75 to 84 | 75 to 84 | 0 to 29 | 60 to 74 | pest or weed control at 140 g/ha [1, 17]: 0 to 29%; pest or weed control at 140 g/ha [1, 18]: 0 to 29%; pest or weed control at 140 g/ha [1, 19]: 60 to 74%; pest or weed control at 140 g/ha [1, 20]: 60 to 74%; pest or weed control at 140 g/ha [1, 21]: 60 to 74%; pest or weed control at 140 g/ha [1, 22]: 0 to 29%; pest or weed control at 140 g/ha [1, 23]: 0 to 29%
4 | COC(=O)c1nc(-c2ccc(C(F)(F)F)cc2Cl)c(Cl)cc1Cl [F103, Methyl 3,5-dichloro-6-(2-chloro-4-(trifluoromethyl)phenyl)picolinate] | 85 to 86 | 0 to 29 | 60 to 74 | 0 to 29 | 75 to 84 | 85 to 94 | 0 to 29 | 30 to 44 | 0 to 29 | 95 to 100 | 75 to 84 | 0 to 29 | 60 to 74 | 75 to 84 | 0 to 29 | 0 to 29 | 
5 | COc1ncc(Cl)cc1-c1ccc(Cl)c(C(=O)O)n1 [F134, 5,5′-Dichloro-2′-methoxy-[2,3′-bipyridine]-6-carboxylic acid] | 155.2 to 163.3 | 0 to 29 | 0 to 29 | 0 to 29 | 0 to 29 | 0 to 29 | 0 to 29 | 0 to 29 | 0 to 29 | 0 to 29 | 0 to 29 | 0 to 29 | 0 to 29 | 0 to 29 | 0 to 29 | 0 to 29 | 

Now from value to compound, other results behind:

Row | melting point [°C] | Compound | pest or weed control at 140 g/ha [1, 2] [%] | pest or weed control at 140 g/ha [1, 3] [%] | pest or weed control at 140 g/ha [1, 4] [%] | pest or weed control at 140 g/ha [1, 5] [%] | pest or weed control at 140 g/ha [1, 6] [%] | pest or weed control at 140 g/ha [1, 7] [%] | pest or weed control at 140 g/ha [1, 8] [%] | pest or weed control at 140 g/ha [1, 9] [%] | pest or weed control at 140 g/ha [1, 10] [%] | pest or weed control at 140 g/ha [1, 11] [%] | pest or weed control at 140 g/ha [1, 12] [%] | pest or weed control at 140 g/ha [1, 13] [%] | pest or weed control at 140 g/ha [1, 14] [%] | pest or weed control at 140 g/ha [1, 15] [%] | pest or weed control at 140 g/ha [1, 16] [%] | also measured
6 | 56 to 57 | O=C(OCc1ccccc1)c1nc(-c2ccc(C(F)(F)F)cc2Cl)ccc1Cl [F44, benzyl 3-chloro-6-(2-chloro-4-(trifluoromethyl)phenyl)picolinate] | 30 to 44 | 95 to 100 | 45 to 59 | 95 to 100 | 95 to 100 | 0 to 29 | 75 to 84 | 45 to 59 | 95 to 100 | 85 to 94 | 0 to 29 | 85 to 94 | 85 to 94 | 0 to 29 | 75 to 84 | 
7 | 127 to 128 | COC(=O)c1nc(-c2ccc(C(F)(F)F)cc2Cl)cc(F)c1Cl [F109, methyl 3-chloro-6-(2-chloro-4-(trifluoromethyl)phenyl)-4-fluoropicolinate] | 0 to 29 | 0 to 29 | 0 to 29 | 0 to 29 | 0 to 29 | 0 to 29 | 0 to 29 | 0 to 29 | 0 to 29 | 0 to 29 | 0 to 29 | 0 to 29 | 0 to 29 |  | 0 to 29 | 
8 | 61 to 63 | COC(=O)c1nc(-c2ccc(C(F)(F)F)cc2Cl)cc(C)c1Cl [F33, methyl 3-chloro-6-(2-chloro-4-(trifluoromethyl)phenyl)-4-methylpicolinate] | 0 to 29 | 0 to 29 | 0 to 29 | 45 to 59 | 45 to 59 | 0 to 29 | 30 to 44 | 0 to 29 | 85 to 94 | 0 to 29 | 0 to 29 | 0 to 29 | 60 to 74 | 0 to 29 | 0 to 29 | 

From patent US20230017045A1, “PYRIDINE AND PYRIMIDINE CARBOXYLATE HERBICIDES AND METHODS OF USE THEREOF” (Dow AgroSciences LLC, priority 2017, published 2023)
